# Patent US20200113913A1, “METHODS FOR HAIR FOLLICLE STEM CELL PROLIFERATION” (Frequency Therapeutics, Inc., priority 2017, published 2020)
# “Also recorded” adds a separate entry of the source.
# How the values were obtained:
# GSK3-alpha = GSK3-alpha (Homo sapiens, UniProt P49840); settings: cited from earlier work
# GSK3-beta = GSK3-beta (Homo sapiens, UniProt P49841); settings: cited from earlier work
# [1] = tested on: Dermal Papilla (DP) cells; experiment: Stem Cell Proliferation Assay using dermal papilla; type: cell-based; settings: Purmorphamine 1 μM; for Alkaline Phosphatase (Alp) colonies: Example 4, FIG. 4
# Procedure: Dermal Papilla (DP) proliferation cell culture assay refers to a cell culture method to quantify the number of Dermal Papilla (DP) spheroids, size of DP spheroids, or number of DP cells in cell culture, which is measured at the end of the assay. DP cells refer to cells that express Alkaline Phosphatase (AP), and/or Versican, and/or Vimentin, and/or Sox2, and/or CD133.
# The protocol for the Stem Cell Proliferation Assay using dermal papilla is as follows:
# Basal media: DMEM/high-glucose medium and F12, supplemented with N2 1×, B27 1×, Streptomycin sulfate (100 μg/ml), Amphotericin B ([…]), and 1 mM Hepes.
# Microdissection is used to remove intact hair follicles from a specimen. Intact follicles are incubated for 40 min at 37° C. in TrypLE™ (Thermo Fisher Scientific) with 1 mg/ml collagenase type 1 (sterilized using 0.2 μm syringe filter). The treated follicles are then triturated >30× using a 200 μl pipette tip. The volume is adjusted up to 1 ml with 1×PBS. The treated follicles are then passed through a 40 μm cell strainer to obtain a single cell suspension.
# Twenty μl are applied to a cell counter to determine the number of cells per 1 ml. The remaining cell suspension is spun down at 1,000×g for 5 min at 4° C.
# Standard media is prepared supplemented with growth factors (IGF, EGF, and FGF2 at 50 ng/ml). The cells are suspended in standard media with growth factors at 120,000 cells/ml and 250 μl (30,000 cells) are applied to each well of a 24-well plate (Corning Costar, 3534).
# Each treatment condition is prepared at 2× concentration, enough for 250 μl/well for a final dilution of 1× in 500 μl. The final DMSO concentration is at about 0.2% for all.
# 250 μl 2× treatment media is applied to each well to have a final media volume per well of 500 μl. The final treatment concentration per well is 1×. The final cell density is 30,000 cells per well. […]
# EVOS® transmitted light images are taken at 0, 5, 7, and 10 days in culture.
# Spheroids are collected at 10 days in culture for immunoblotting, qPCR, or flow cytometry. Alternatively, spheroids may be applied to glass bottom dishes coated with poly-1-lysine for alkaline phosphatase (AP) staining, 5-ethynyl-2′-deoxyuridine (EdU) staining, and/or immunofluorescence for DP markers (e.g. Vimentin, Sox2, Versican, CD133) for microscopy.
# Alternatively, cells or colonies may be assessed using microscopy to compare DP properties across conditions.
# [2] = Example 1, FIG. 1, 8 days in culture, CHIR99021 4 μM, alone or combined
# [3] = Example 2, FIG. 2, 10 days in culture, Compound I-7 10 nM, alone or combined
# [4] = 10 days in culture, Compound I-7 10 nM, alone or combined
# [5] = Example 3, FIG. 3, SAG 3 nM, SAG HCl 500 nM, alone or with Compound I-7 10 nM
# Sequence of GSK3-alpha (P49840 whole entry, species assumed): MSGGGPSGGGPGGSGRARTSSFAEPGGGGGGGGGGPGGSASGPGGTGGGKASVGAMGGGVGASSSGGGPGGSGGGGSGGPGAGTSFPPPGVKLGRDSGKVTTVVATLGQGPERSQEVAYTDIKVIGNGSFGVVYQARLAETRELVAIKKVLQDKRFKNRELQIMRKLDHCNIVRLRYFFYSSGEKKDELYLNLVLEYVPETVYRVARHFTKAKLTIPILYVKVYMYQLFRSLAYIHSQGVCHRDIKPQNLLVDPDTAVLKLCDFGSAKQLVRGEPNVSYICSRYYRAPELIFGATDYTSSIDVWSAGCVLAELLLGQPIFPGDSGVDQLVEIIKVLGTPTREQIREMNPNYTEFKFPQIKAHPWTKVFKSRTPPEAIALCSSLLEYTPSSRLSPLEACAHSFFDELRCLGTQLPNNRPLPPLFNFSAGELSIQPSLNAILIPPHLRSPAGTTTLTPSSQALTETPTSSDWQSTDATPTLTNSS
# Sequence of GSK3-beta (P49841 whole entry, species assumed): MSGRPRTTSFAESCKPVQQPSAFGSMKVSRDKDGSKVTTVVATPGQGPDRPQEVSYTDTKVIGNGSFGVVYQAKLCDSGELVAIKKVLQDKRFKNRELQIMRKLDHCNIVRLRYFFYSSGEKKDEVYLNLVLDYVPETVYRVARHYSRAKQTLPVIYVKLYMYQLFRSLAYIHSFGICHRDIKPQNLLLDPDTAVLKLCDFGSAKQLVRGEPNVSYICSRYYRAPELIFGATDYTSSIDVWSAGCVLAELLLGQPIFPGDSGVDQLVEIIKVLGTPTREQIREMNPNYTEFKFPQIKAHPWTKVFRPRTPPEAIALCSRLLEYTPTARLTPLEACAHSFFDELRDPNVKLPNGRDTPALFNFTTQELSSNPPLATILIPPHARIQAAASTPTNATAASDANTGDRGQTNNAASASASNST
smiles,measurement,setting,value
N#Cc1ccc2[nH]c(O)c(-c3ccc(CN4CCOCC4)cn3)c2c1 [AZD1080],Potency in nM GSK3-alpha,GSK3-alpha,6.9 nM
COc1ccccc1[C@@H]1C2=C(CC(C)(C)CC2=O)Nc2n[nH]c(C(F)(F)F)c21 [BRD1172],Potency in nM GSK3-alpha,GSK3-alpha,3 nM
same,Potency in nM GSK3-beta,GSK3-beta,10 nM
CC1(C)CC(=O)C2=C(C1)Nc1n[nH]c(C(F)(F)F)c1[C@]2(C)c1ccccc1 [BRD1652],Potency in nM GSK3-alpha,GSK3-alpha,0.4 nM
same,Potency in nM GSK3-beta,GSK3-beta,4 nM
Cc1c[nH]c(-c2cnc(NCCNc3ccc(C#N)cn3)nc2-c2ccc(Cl)cc2Cl)n1 [CHIR99021],DP colonies by light microscopy,[1]; [2],more abundant colonies than FIG. 1A; also recorded: more abundant colonies than DP cells treated in control conditions
"O=C1NC(=O)C(c2cnc3ccccn23)=C1c1cn2c3c(cc(F)cc13)CN(C(=O)N1CCC(F)(F)CC1)CC2 [Compound I-7, 3-(2-(4,4-difluoropiperidine-1-carbonyl)-9-fluoro-1,2,3,4-tetrahydro-[1,4]diazepino[6,7,1-hi]indol-7-yl)-4-(imidazo[1,2-a]pyridin-3-yl)-1H-pyrrole-2,5-dione]",DP colonies by light microscopy,[1]; [3],more abundant colonies than FIG. 2A; also recorded: more abundant colonies than DP cells treated in control conditions
same,Alkaline Phosphatase (Alp) colonies,[1]; [4],small Alp colonies; also recorded: few Alp colonies
Cc1ccc(C(=O)Nc2c[nH]nc2C(=O)NCCCOC(C)C)cn1 [GSK-3b XXII],Potency in nM GSK3-alpha,GSK3-alpha,2.3 nM
c1ccc2c(Oc3nc(Nc4ccc(N5CCOCC5)cc4)c4ncn(C5CCCCC5)c4n3)cccc2c1 [Purmorphamine],DP colonies by light microscopy,[1]; [2],slightly larger and more abundant colonies than FIG. 1A; also recorded: slightly larger and more abundant colonies than DP cells treated in control conditions
same,DP colonies by light microscopy,[1]; [3],slightly larger and more abundant colonies than FIG. 2A; also recorded: slightly larger and more abundant colonies than DP cells treated in control conditions
same,DP colonies by light microscopy,[1]; [5],form colonies
same,Alkaline Phosphatase (Alp) colonies,[1]; [4],few Alp colonies
CNC1CCC(N(Cc2cccc(-c3ccncc3)c2)C(=O)c2sc3ccccc3c2Cl)CC1 (centres unmarked) [SAG],DP colonies by light microscopy,[1]; [5],form colonies
